From PMC7347136 (PLoS ONE, 2020)
Where two headings read alike, the source gives them in different places.

Tests used:
[1] = tested on: THP-1; experiment: Resazurin reduction cell viability assay; format: cell-based, human; details: Homo sapiens, THP-1, 72 h, THP-1; value the 7 x 7 combination matrix spans; 72 h; read-out: IC50 value of each compound (single agent)
Description: (§1) Solid tumor cell lines were seeded in 100 μl medium into 96-well plates at an appropriate cell number determined by a cell dilution assay (Cal51–2000 cells/well; Colo205, MCF10A and 184A1–3000 cells/well and MDA-MB-468, HCC1954–4000 cells/well). AML suspension cells were seeded in 96-well plates at approximately 3000 cells per well. Cells were incubated overnight at 37°C, 5% CO2. The following day, 100 μl fresh medium containing increasing concentrations of appropriate compound was added and the cells were incubated for up to 72 h at 37°C, 5% CO2. For pulse treatment of solid (adherent) tumor cell lines, medium was aspirated and replaced with fresh drug-free medium. For pulse treatment of suspension lines, plates were centrifuged at 478 xg for 5 min at the end of the incubation period with compound, medium containing compound was carefully aspirated and replaced with fresh compound-free medium. A total of 72 h after the start of treatment, 20 μl of a 10X stock of resazurin sodium salt (Sigma-Aldrich, Dorset, UK) prepared in medium was added to the cells and incubated for up to 3 h. […] was measured on the Wallac Victor plate reader (Cambridge, UK) at 544–595 nm. IC50/70/90 calculations were determined in XLFit.

[2] = tested on: Colo205; experiment: Resazurin reduction cell viability assay; format: cell-based, human; details: 72 h continuous treatment, read-out: Colo205 IC50 ± SD
Description: as §1

[3] = tested on: subcutaneous EOL-1 tumors; experiment: EOL-1 human eosinophilic leukemia xenograft model; format: in vivo, SCID mice
Description: Female athymic CB-17 SCID (Harlan Sprague-Dawley) mice between 6–7 weeks of age weighing approximately 22 grams were housed in a 12-h light-dark cycle at 70–74°F (21–23°C) and 40–60% humidity. Animals were fed water ad libitum (reverse osmosis, 2 ppm Cl2) and an irradiated standard rodent diet (Teklad 2919) consisting of 19% protein, 9% fat, and 4% fiber. Mice were injected subcutaneously into the right flank with 1x10^7 EOL-1 cells in 100 μl of a 1:1 HBSS:Matrigel solution. When tumors reached approximately 125–250 mm^3, animals were matched by tumor volume and then randomized into treatment and control groups before dosing was initiated. […] Cytarabine, also known as cytosine arabinoside (AraC), was administered by daily ip injection for 5 days only. Agent toxicity was assessed by effects on body weight and clinical signs. Animals were weighed twice weekly using a digital scale (Ohaus SP601). Beginning on Day 0, tumor dimensions were measured twice weekly by digital caliper (Fowler Ultra-Cal IV); tumor volume was calculated using the formula TV = width^2 x length x 0.52. […] Statistical differences in tumor volume were determined using a two-tailed One-Way Analysis of Variance (ANOVA) followed by the Dunnett’s multiple comparisons test comparing treated groups with control. For animal welfare the following methods were used: (a) methods of sacrifice: isoflurane anesthesia followed by cervical dislocation; (b) methods of anesthesia and/or analgesia: isoflurane anesthesia and (c) efforts to alleviate suffering: carprofen if animal veterinarian decides necessary or euthanasia.

| Structure (SMILES) | IC50 [1] [nM] | IC50 ([2]; Homo sapiens, COLO 205, 72 h) [nM] | further results |
| --- | --- | --- | --- |
| CN1CC[C@H](c2c(O)cc(O)c3c(=O)cc(-c4ccccc4Cl)oc23)[C@H](O)C1 [Alvocidib (flavopiridol), reference compound] | – | 129 | IC50 [2]: 130 ± 20 nM |
| Nc1ccn([C@@H]2O[C@H](CO)[C@@H](O)[C@@H]2O)c(=O)n1 [cytarabine, cytosine arabinoside, reference compound] | – | – | transient body weight loss ([3]; 100 mg/kg i.p.): 3%; tumor growth inhibition (TGI) ([3]; 100 mg/kg i.p. days 1-5, Day 19): 38%; median TGI ([3]; 100 mg/kg i.p. days 1-5, day 9): 41% |

More lines, main results first:

| IC50 [1] [nM] | IC50 ([2]; Homo sapiens, COLO 205, 72 h) [nM] | Structure (SMILES) | further results |
| --- | --- | --- | --- |
| 60 | – | CC1(C)CCC(CN2CCN(c3ccc(C(=O)NS(=O)(=O)c4ccc(NCC5CCOCC5)c([N+](=O)[O-])c4)c(Oc4cnc5[nH]ccc5c4)c3)CC2)=C(c2ccc(Cl)cc2)C1 [ABT-199, reference compound] | – |
| 270 | – | CC1(C)CCC(c2ccc(Cl)cc2)=C(CN2CCN(c3ccc(C(=O)NS(=O)(=O)c4ccc(N[C@H](CCN5CCOCC5)CSc5ccccc5)c(S(=O)(=O)C(F)(F)F)c4)cc3)CC2)C1 [ABT-263, reference compound] | – |
| 430 | – | CN(C)CC[C@H](CSc1ccccc1)Nc1ccc(S(=O)(=O)NC(=O)c2ccc(N3CCN(Cc4ccccc4-c4ccc(Cl)cc4)CC3)cc2)cc1[N+](=O)[O-] [ABT-737, reference compound] | – |
| – | 820 | CC[C@H](Nc1nc(NCc2cccnc2)c2ncn(C(C)C)c2n1)[C@@H](C)O [CCT068127] | – |
